Experimental data as given in PMC10320002, “In vitro antiproliferative, anti-inflammatory effects and molecular docking studies of natural compounds isolated from Sarcocephalus pobeguinii (Hua ex Pobég)” (Frontiers in Pharmacology, 2023).
pIC50: −log10 of the molar value. Values joined by “and” are separate entries in the source; they are usually repeats but may differ in a detail not shown here. Identical values can stand only once.

Tests used:
[1] = system: caspase-3/-7 activity in MCF-7 cells; experiment: Caspase-3/-7 luminescence assay (Caspase-Glo 3/7) in MCF-7 cells; format: cell-based, human; settings: 2×IC50, 18 h, vs cells treated with DMSO 0.5%
Description: The effect of the most bioactive compounds (2), (6) and (9) were used for the analysis of caspase-3 and caspase-7 activities on MCF-7 cells by using the Caspase-Glo® 3/7 kit (Promega, Germany). In fact, MCF-7 cells were seeded at a density of 10^4 cells per well on 96-well microtiter plates, and the plates were incubated overnight at 37 °C in a 5% CO2 humidified environment. […] Thereafter, 100 µL of Caspase-Glo® 3/7 reagent was added to each well, mixed and incubated in the dark for 1 h at room temperature. The luminescence was then measured on a microplate reader (Synergy Multi-Mode Reader, BioTek, Winooski, United States of America). The caspase-3/-7 activity was expressed as fold change of cells treated with 0.5% DMSO (control).

[2] = system: cancer cells (MCF-7, HepG2, Caco-2 and A549) and non-cancerous Vero cells; experiment: Time-dependent cytotoxic effect on cell growth (MTT); format: cell-based; settings: 10 μg/mL; 12, 24 and 48 h
Description: The cancerous and non-cancerous cells were seeded at a density of 10^4 cells per well in 96-well microtiter plates, and they were incubated overnight at 37°C with 5% CO2 in a 5% CO2 humidified environment in order to allow the attachment of cells at the bottom of the plates. Then, the cells were exposed to increasing concentrations of compounds (100, 50, 25, 10 and 5 μg/mL) dissolved in dimethyl sulfoxide (DMSO) and further diluted in fresh culture medium. In this assay, the final concentration of DMSO in the culture medium was 0.5% used as negative control while doxorubicin hydrochloride (Pfizer, United States of America) was used as a positive control. […] After 4 h of incubation, the medium was gently removed, and the formazan crystals were solubilized in 50 µL of DMSO. The absorbance was measured at 570 nm after shaking for 1 min on a microplate reader (Synergy Multi-Mode Reader, BioTek, Winooski, United States of America).

[3] = system: human normal skin fibroblasts (WS1) cell lines; parameters: method as in Gauthier et al., 2009; settings: ref Gauthier et al., 2009; cited from earlier work
[4] = system: human lung cancer cells A549; parameters: method as in Gauthier et al., 2009; Gao et al., 2016; settings: ref Gauthier et al., 2009; Gao et al., 2016; cited from earlier work

Row | Structure (SMILES) | fold change in the activation of caspase-3/-7 activity [1] | time-dependent cytotoxic effect on cell growth [2] | pIC50 [3] | pIC50 [4]
1 | CC1(C)CC[C@]2(C(=O)O)CC[C@]3(C)C(=CC[C@@H]4[C@@]5(C)CC[C@H](O)[C@@](C)(CO)[C@@H]5CC[C@]43C)[C@@H]2C1 [Compound 2, hederagenin] | up to 2 fold | time-dependent manner | 4.11 | 4.58 and 4.41
2 | C[C@@H]1CC[C@]2(C(=O)O)CC[C@]3(C(=O)O)C(=CCC4[C@@]5(C)CC[C@H](O[C@H]6O[C@H](C)[C@@H](O)[C@H](O)[C@H]6O)C(C)(C)C5CC[C@]43C)C2[C@H]1C (stereo partly drawn) [Compound 6, quinovic acid 3-O-[α-D-quinovopyranoside]] | up to 2 fold | – | – | –
